# In US20100298136A1, “ACTIVE INGREDIENT COMBINATIONS WITH INSECTICIDAL PROPERTIES” (BAYER CROPSCIENCE AG, priority 2006, published 2010):
# Experiments:
# [1] = system: green peach aphid (Myzus persicae); assay: Myzus persicae test (cabbage leaf dip); format: in vivo; settings: single active compound, 0.16 ppm
# Experimental: (§1) Solvent: 7 parts by weight of dimethylformamide Emulgator: 2 parts by weight of alkylaryl polyglycol ether
# (§2) To produce a suitable preparation of active compound, 1 part by weight of active compound is mixed with the stated amounts of solvent and emulsifier, and the concentrate is diluted with water to the desired concentration.
# Cabbage leaves (Brassica oleracea) which are heavily infested by the green peach aphid (Myzus persicae) are treated by being dipped into the preparation of active compound of the desired concentration.
# After the desired period of time, the kill in % is determined. 100% means that all aphids have been killed; 0% means that none of the aphids have been killed. The kill rates determined are entered into the Colby formula (see sheet 1).
# [2] = system: larvae of the mustard beetle (Phaedon cochleariae); assay: Phaedon cochleariae larvae test (cabbage leaf dip); format: in vivo; settings: single active compound
# Experimental: Phaedon cochleariae Larvae Test
# as §1, §2
# Cabbage leaves (Brassica oleracea) are treated by being dipped into the preparation of active compound of the desired concentration and populated with larvae of the mustard beetle (Phaedon cochleariae) while the leaves are still moist.
# After the desired period of time, the kill in % is determined. 100% means that all beetle larvae have been killed; 0% means that none of the beetle larvae have been killed. The kill rates determined are entered into the Colby formula (see sheet 1).
Structure (SMILES),Kill in % after 6d [1],Kill in % after 4d ([2]; 4 ppm),Kill in % after 4d ([2]; 20 ppm)
CN(Cc1ccc(Cl)nc1)C1=CC(=O)OC1 [compound (Ia)],10%,5%,16%
"O=[N+]([O-])/N=C1\NCCN1Cc1ccc(Cl)nc1 [imidacloprid, reference compound]",20%,,53%
